According to the METLIN SMRT retention time set (Domingo-Almenara et al. 2019):

Experiment: gradient 5% acetonitrile 3 min, to 50% in 2 min, to 85% in 15 min, held 3 min, 100 µL/min
Settings: column: Zorbax Extend-C18 2.1 x 50 mm; eluents: water / acetonitrile, 0.1% formic acid
In short: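 Pure standards were run in mixtures of ~100 molecules by HPLC coupled to a quadrupole time-of-flight mass spectrometer. The column was a Zorbax Extend-C18 (2.1 × 50 mm, 1.8 μm) at 100 μL/min, with water and acetonitrile each containing 0.1% formic acid, in positive and negative ionization mode. Dead and dwell volumes were 40 μL and 900 μL. Retention time was taken from computationally picked adduct peaks, each manually inspected, with data collected over 3 months.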

| SMILES | RP-LC retention time |
| --- | --- |
| COc1ccc2c(c1)C1(CCN(C(=O)Cc3ccccc3Cl)C1)C(=O)N2 (stereo not drawn) | 773 s |
| C(=C\c1cccs1)/c1nc(-c2cccc(-c3ccn[nH]3)c2)no1 | 1010 s |
| CCc1nc2c(c(=O)n1CC(=O)Nc1ccccc1)CN(Cc1ccccc1)CC2 | 638 s |
| COc1ccc(N2CC(c3nc(-c4ccccc4)no3)CC2=O)cc1Cl (stereo not drawn) | 973 s |
| CC(=O)Nc1c(C)noc1/C=C\c1ccc(S(=O)(=O)N2CCN(c3ncccn3)CC2)cc1 | 762 s |
| Cc1ccc(Cn2c(=O)c(SCC(=O)NC3CC3)nc3ccccc32)cc1 | 893 s |
| Cc1ccc(CNC(=O)Cn2c(C)cc(-c3nnc(C4CCC4)o3)c2C)cc1 | 903 s |
| CC(C)CNC(=O)N1CCN(Cc2nc3cccnc3n2-c2cccc(F)c2)CC1 | 634 s |
| CSc1ccc(CNC(=O)C2CCCN(C(=O)c3[nH]c(C)cc3C)C2)cc1 (stereo not drawn) | 701 s |
| O=C(CCC(=O)N1CCN(C(c2ccccc2)c2ccccc2)CC1)Nc1noc2ccccc12 | 718 s |
| CCc1ccc(-c2cc(C(=O)N3CCCN(c4cc(=O)n(C(C)C)c(=O)n4C(C)C)CC3)[nH]n2)cc1 | 946 s |
| O=C(NCc1nc2cccnc2n1Cc1ccc(F)cc1)c1ccc(Br)o1 | 757 s |
| CCCn1cc(CCNC(=O)Nc2ccc(Cl)cc2)c2cccnc21 | 812 s |
| COC(=O)c1cc2c(=O)n(-c3cc(Cl)cc(Cl)c3)ccc2nc1C | 1010 s |
| O=C(Nc1ccc(Br)c(F)c1)c1cnc(-c2ccccc2)nc1-c1ccncc1 | 1030 s |
| O=C(c1ccc2ncnc(N3CCCC3)c2c1)N1CCN(c2ccccc2)CC1 | 646 s |
| Cc1nn(-c2ccccc2)c(C)c1S(=O)(=O)N1CCN(c2ccccn2)CC1 | 664 s |
| Cc1ccccc1-c1noc(-c2cccnc2N2CCN(Cc3ccccc3)CC2)n1 | 803 s |
| COCc1cc2nn(CC(=O)Nc3ccc(F)cc3C)c(=O)n2c(-c2ccccc2)n1 | 826 s |
| CCC(=O)N1CCc2cc(C(=O)NC3CCCC3)ccc21 | 744 s |
| COc1ccc(C(C)NC(=O)c2cn3c(n2)COCC3)cc1OC (stereo not drawn) | 608 s |
| COCCN1C(=O)c2ccccc2C(C(=O)NCc2ccccc2OC)C12CCCC2 (stereo not drawn) | 855 s |

| SMILES | RP-LC retention time |
| --- | --- |
| Cc1cc(C(=O)Nc2ccc3c(c2)OCCO3)no1 | 681 s |
| CCOC(=O)COC(=O)c1cn(-c2ccc(OCC)cc2)c(=O)c2ccccc12 | 1070 s |
| CCN1C(=O)c2cccnc2Sc2cc(CNC(=O)Cc3ccc(F)cc3)ccc21 | 761 s |
| COc1ccccc1NC(=O)C1CCN(c2cc(N3CCCCC3)ncn2)CC1 | 700 s |
| CN(C)C(=O)c1n[nH]c2c1CN(C(=O)c1ccccc1F)CC2 | 618 s |
| CCOc1ccc(-c2noc(Cc3nnc(-c4ccc(C)c(C)c4)o3)n2)cc1 | 1200 s |
| O=C(NC1CC1)c1ccc(OCC2CCN(C(=O)Cc3ccc(Cl)cc3)CC2)cc1 | 868 s |
| COc1ccc(Nc2nc(-c3nnn(-c4cccc(Cl)c4)c3C)ns2)cc1OC | 963 s |
| CC(=O)N1c2ccc(S(=O)(=O)N3CCCCC3)cc2CC1C(=O)Nc1c(C)cc(C)cc1C (stereo not drawn) | 955 s |
| O=C(NCCC1=CCCCC1)C1CCN(C(=O)C2Sc3ccccc3NC2=O)CC1 (stereo not drawn) | 802 s |
| Cc1nc2cc(-c3noc(C(C)Oc4cccc(Cl)c4)n3)ccc2n(C)c1=O (stereo not drawn) | 1110 s |
| CNC(=O)C1CCCN(c2nc3ncn(CC(=O)Nc4ccc(F)cc4)c(=O)c3s2)C1 (stereo not drawn) | 634 s |
| CCN1CCN(c2nc3c(s2)CN(C(=O)CCC(C)C)CC3)CC1 | 614 s |
| O=C(Cc1ccc(F)cc1)NCCOc1cccc(C(F)(F)F)c1 | 880 s |
| CCc1nn2c(ncc3c(=O)n(-c4nccs4)ccc32)c1-c1ccc(F)cc1 | 1320 s |
| O=C(NCc1cccs1)C(=O)NCC1(c2ccc(F)cc2)CC1 | 727 s |
| COC(=O)c1ccc2c(=O)n(-c3ccc(Cl)cc3)c(N3CCCC3)nc2c1 | 1060 s |
| O=[N+]([O-])c1ccc(S(=O)(=O)N2CCN(c3ccc(NCC4CCCO4)nn3)CC2)cc1 (stereo not drawn) | 568 s |
| CC(C)NC(=O)C1CCN(c2nc3ccc(-c4cccs4)nc3s2)CC1 | 879 s |
| Cc1ccc(-c2noc(C3CCCN3C(=O)c3ccc(CS(=O)(=O)c4ccccc4)cc3)n2)cc1 (stereo not drawn) | 1010 s |
| N#Cc1cccc(NC(=O)COc2ccc(-c3nnc4n3CCCC4)cc2)c1 | 653 s |
| Cc1cc(NC(=O)CN2C(=O)CN(C)C(=O)c3ccccc32)ccc1Br | 765 s |

| SMILES | RP-LC retention time |
| --- | --- |
| Cc1ccc(-c2nnc(Cc3nc(-c4ccc5c(c4)OCO5)no3)o2)cc1F | 1020 s |
| O=C1CC(c2nc(-c3ccc(Cl)cc3)no2)CN1c1ccc2c(c1)OCCO2 (stereo not drawn) | 1040 s |
| O=S(=O)(c1ccc2c(c1)CCC2)N1CCc2nc(-c3ccc(F)cc3)ncc2C1 | 1220 s |
| CN(C)c1cccc(-c2nc(C3CC(=O)N(c4ccc(Cl)cc4)C3)no2)c1 (stereo not drawn) | 1110 s |
| COC(=O)CNC(=O)N1CCN(Cc2ccc(C)cc2)c2ncccc21 | 651 s |
| CCN1CCCn2cc(S(=O)(=O)Nc3ccccc3F)cc2C1=O | 687 s |
| Cn1ccnc1C(=O)N1CCCCCCNC(=O)[C@@H]2CCCC[C@@H]21 | 627 s |
| Cc1csc(-n2nc(C)c(CC(=O)Nc3ccc(F)cc3)c2C)n1 | 950 s |
| CN1CCC(OC2CCN(C(=O)c3ccc(F)cc3Cl)CC2)CC1 | 583 s |
| O=C(c1cnn2cc(Br)cnc12)N1CCCC1c1ccccc1F (stereo not drawn) | 841 s |
| Cc1nnc(-c2cc(NC(=O)c3cc(F)ccc3Cl)c(C)s2)o1 | 955 s |
| CCOc1ccc2nc(C(=O)NC(C)C)cn2n1 | 731 s |
| COc1ccc(OC)c(NC(=O)Cn2nc(N3CCOCC3)c3ccccc3c2=O)c1 | 796 s |
| CCc1nnc([C@@H]2CC(F)(F)CN2C(=O)c2cc(C)no2)o1 | 686 s |
| Cc1nnc(N2CCCC(C(=O)NC(C)c3ccccc3)C2)c2nn(-c3ccc(Cl)cc3)c(C)c12 (stereo not drawn) | 795 s |
| O=C(NCCc1nc2cccnc2n1-c1ccccc1)C1CCCCC1 | 730 s |
| O=C(NCc1cccnc1-c1ccc(F)cc1)c1ccc(F)cc1F | 690 s |
| COC(=O)c1ccc2c(=O)n(-c3cc(C)cc(C)c3)c(N3CCC(C)CC3)nc2c1 | 1420 s |
| CCc1ccc(CNC(=O)CCCN2C(=O)CCn3nc(C)cc32)cc1 | 726 s |
| CCOC(=O)C1CCC(CNC(=O)N2CCN(Cc3nc4ccc(Cl)cc4o3)CC2)CC1 (stereo not drawn) | 697 s |
| CCCCC(=O)N(C)CCc1noc(-c2ccc(C(=O)N3CCOCC3)cc2)n1 | 686 s |
| COc1cccc(CNC(=O)N2CCCC(C)(C(=O)NCc3ccc(F)cc3)C2)c1 (stereo not drawn) | 815 s |

| SMILES | RP-LC retention time |
| --- | --- |
| Cc1cc(C)cc(C(=O)N2CC3CN(S(=O)(=O)c4ccccc4)CC(C2)O3)c1 | 892 s |
| Cc1ccn2c(NC(=O)c3ccc4ccccc4c3)c(-c3ccc(F)cc3)nc2c1 | 765 s |
| Cc1ccccc1OCC(=O)N1CCc2cc(-c3ccno3)ccc21 | 971 s |
| CCC(Oc1ccc(=O)n(-c2ccc(F)cc2)n1)C(=O)NCc1ccc2c(c1)OCO2 (stereo not drawn) | 752 s |
| Cn1cc(SCC(=O)Nc2ccccc2C(F)(F)F)c2ccccc21 | 967 s |
| COc1ccc(NC(=O)Cn2ccc3sccc3c2=O)cc1 | 706 s |
| COc1ccccc1-c1noc(-c2nn(-c3ccc(F)c(F)c3)ccc2=O)n1 | 807 s |
| CCS(=O)(=O)N1CC(=O)N(c2ccc(F)cc2)C(C)(C(=O)NCc2ccc(F)cc2)C1 (stereo not drawn) | 743 s |
| CCOc1ccc(-c2nc3ncccn3c2NCc2ccc(C)cc2)cc1OC | 773 s |
| COc1ccc(NS(=O)(=O)c2cc3n(c2)CCCN(C)C3=O)cc1 | 650 s |
| COc1ccc(NC(=O)C2CCN(S(=O)(=O)c3cc(C(=O)N4CCCC4)n(C)c3)CC2)cc1 | 729 s |
| Cc1nn(-c2ccc(F)cc2)c(C)c1S(=O)(=O)N1CCC(C(=O)N2CCCCC2)CC1 | 914 s |
| Cc1ccc(C)c(Cn2nc3ccc(S(=O)(=O)N4CCSCC4)cn3c2=O)c1 | 996 s |
| CCc1ccc(C(C)NC(=O)c2nnc(-c3ccc(S(=O)(=O)N(C)C)cc3)o2)cc1 (stereo not drawn) | 1010 s |
| Cc1ccc(NC(=O)C2CC(=O)N(c3ccc4oc(C)nc4c3)C2)cc1 (stereo not drawn) | 749 s |
| COc1ccc(OC)c(NC(=O)N(C)CCc2noc(COc3ccc(F)cc3)n2)c1 | 919 s |
| CCCN1C(=O)c2cc(S(=O)(=O)N3CCCCCC3)ccc2Oc2cccnc21 | 1180 s |
| Cc1cc(NS(=O)(=O)c2cc(-c3nc(C(C)(C)C)cs3)cs2)ccc1F | 1220 s |
| COCCCNC(=O)C1c2ccccc2C(=O)N(C2CCCC2)C1c1cccs1 (stereo not drawn) | 836 s |
| O=c1ccc(-c2ccc(F)cc2)nn1Cc1nc(-c2cccc(Cl)c2)no1 | 1090 s |
| Cc1cccc(N2CC(C(=O)NC3CC3)CC2=O)c1 (stereo not drawn) | 671 s |
| COc1ccc(NC(=O)C2CCN(C(=O)C3Sc4ccccc4NC3=O)CC2)cc1Cl (stereo not drawn) | 795 s |
